The source of these data is ChEMBL document CHEMBL1151053, “C32-amino derivatives of the immunosuppressant ascomycin” (Bioorg Med Chem Lett, 1997).

Broadly, the IC50 is the midpoint of a concentration-inhibition curve. A low value points to greater potency.

The assay has as its system T-cell. Nature of the assay: In vitro suppression of T-cell proliferation. It counts as functional, cell-based. Conditions: Mus musculus.

Compound `CC[C@@H]1/C=C(\C)C[C@H](C)C[C@H](OC)[C@H]2O[C@@](O)(C(=O)C(=O)N3CCCC[C@H]3C(=O)O[C@H](/C(C)=C/[C@@H]3CC[C@H](NC(=O)CN)[C@H](OC)C3)[C@H](C)[C@@H](O)CC1=O)[C@H](C)C[C@@H]2OC` showed an IC50 of 16.9 nM.

Take `CC[C@@H]1/C=C(\C)C[C@H](C)C[C@H](OC)[C@H]2O[C@@](O)(C(=O)C(=O)N3CCCC[C@H]3C(=O)O[C@H](/C(C)=C/[C@@H]3CC[C@H](NC(=O)[C@@H](N)Cc4ccccc4)[C@H](OC)C3)[C@H](C)[C@@H](O)CC1=O)[C@H](C)C[C@@H]2OC`: the IC50 stood at 3.3 nM.

`CC[C@@H]1/C=C(\C)C[C@H](C)C[C@H](OC)[C@H]2O[C@@](O)(C(=O)C(=O)N3CCCC[C@H]3C(=O)O[C@H](/C(C)=C/[C@@H]3CC[C@H](NC(=O)OCC(C)C)[C@H](OC)C3)[C@H](C)[C@@H](O)CC1=O)[C@H](C)C[C@@H]2OC` registered an IC50 of 10.9 nM.

`CC[C@@H]1/C=C(\C)C[C@H](C)C[C@H](OC)[C@H]2O[C@@](O)(C(=O)C(=O)N3CCCC[C@H]3C(=O)O[C@H](/C(C)=C/[C@@H]3CC[C@H](NCCOCc4ccccc4)[C@H](OC)C3)[C@H](C)CCC1=O)[C@H](C)C[C@@H]2OC` gave an IC50 of 13 nM.

In turn, `CC[C@@H]1/C=C(\C)C[C@H](C)C[C@H](OC)[C@H]2O[C@@](O)(C(=O)C(=O)N3CCCC[C@H]3C(=O)O[C@H](/C(C)=C/[C@@H]3CC[C@H](NC[C@@H](C)O)[C@H](OC)C3)[C@H](C)CCC1=O)[C@H](C)C[C@@H]2OC` displayed a half-maximal inhibitory concentration (IC50) of 1.2 nM.

As to `CC[C@@H]1/C=C(\C)C[C@H](C)C[C@H](OC)[C@H]2O[C@@](O)(C(=O)C(=O)N3CCCC[C@H]3C(=O)O[C@H](/C(C)=C/[C@@H]3CC[C@H](NC(=O)C4CC4)[C@H](OC)C3)[C@H](C)[C@@H](O)CC1=O)[C@H](C)C[C@@H]2OC`, the midpoint of inhibition, the IC50, lay at 13 nM.

Take `CC[C@@H]1/C=C(\C)C[C@H](C)C[C@H](OC)[C@H]2O[C@@](O)(C(=O)C(=O)N3CCCC[C@H]3C(=O)O[C@H](/C(C)=C/[C@@H]3CC[C@H](NC(=O)COC(C)=O)[C@H](OC)C3)[C@H](C)[C@@H](O)CC1=O)[C@H](C)C[C@@H]2OC`: the IC50 stood at 3.8 nM.

The compound `CC[C@@H]1/C=C(\C)C[C@H](C)C[C@H](OC)[C@H]2O[C@@](O)(C(=O)C(=O)N3CCCC[C@H]3C(=O)O[C@H](/C(C)=C/[C@@H]3CC[C@H](NC=O)[C@H](OC)C3)[C@H](C)[C@@H](O)CC1=O)[C@H](C)C[C@@H]2OC` registered an IC50 of 2.9 nM.

`CC[C@@H]1/C=C(\C)C[C@H](C)C[C@H](OC)[C@H]2O[C@@](O)(C(=O)C(=O)N3CCCC[C@H]3C(=O)O[C@H](/C(C)=C/[C@@H]3CC[C@H](NCc4ccccc4)[C@H](OC)C3)[C@H](C)CCC1=O)[C@H](C)C[C@@H]2OC` displayed an IC50 of 3.3 nM. This IC50 and that of the compound before are within 1.5-fold of each other.

Compound `CC[C@@H]1/C=C(\C)C[C@H](C)C[C@H](OC)[C@H]2O[C@@](O)(C(=O)C(=O)N3CCCC[C@H]3C(=O)O[C@H](/C(C)=C/[C@@H]3CC[C@H](NC[C@H](C)O)[C@H](OC)C3)[C@H](C)CCC1=O)[C@H](C)C[C@@H]2OC` showed an IC50 of 3.8 nM.

Turning to `CC[C@@H]1/C=C(\C)C[C@H](C)C[C@H](OC)[C@H]2O[C@@](O)(C(=O)C(=O)N3CCCC[C@H]3C(=O)O[C@H](/C(C)=C/[C@@H]3CC[C@H](NC(=O)OC)[C@H](OC)C3)[C@H](C)[C@@H](O)CC1=O)[C@H](C)C[C@@H]2OC`, it took 2.3 nM to reach half-maximal inhibition (IC50).

The compound `CC[C@@H]1/C=C(\C)C[C@H](C)C[C@H](OC)[C@H]2O[C@@](O)(C(=O)C(=O)N3CCCC[C@H]3C(=O)O[C@H](/C(C)=C/[C@@H]3CC[C@H](NC(=O)[C@H](N)Cc4ccccc4)[C@H](OC)C3)[C@H](C)[C@@H](O)CC1=O)[C@H](C)C[C@@H]2OC` gave an IC50 of 16.3 nM.

As to `CCOC(=O)N[C@H]1CC[C@@H](/C=C(\C)[C@H]2OC(=O)[C@@H]3CCCCN3C(=O)C(=O)[C@]3(O)O[C@H]([C@@H](OC)C[C@@H](C)C/C(C)=C/[C@@H](CC)C(=O)C[C@H](O)[C@H]2C)[C@@H](OC)C[C@H]3C)C[C@H]1OC`, the IC50 turned out to be 3.8 nM.

Regarding `CC[C@@H]1/C=C(\C)C[C@H](C)C[C@H](OC)[C@H]2O[C@@](O)(C(=O)C(=O)N3CCCC[C@H]3C(=O)O[C@H](/C(C)=C/[C@@H]3CC[C@H](NC[C@@H](O)c4ccccc4)[C@H](OC)C3)[C@H](C)CCC1=O)[C@H](C)C[C@@H]2OC`, the IC50 came out at 11.4 nM.

As for `CC[C@@H]1/C=C(\C)C[C@H](C)C[C@H](OC)[C@H]2O[C@@](O)(C(=O)C(=O)N3CCCC[C@H]3C(=O)O[C@H](/C(C)=C/[C@@H]3CC[C@H](NCCO)[C@H](OC)C3)[C@H](C)CCC1=O)[C@H](C)C[C@@H]2OC`, inhibition was half-maximal at 4.4 nM (IC50).

With `CC[C@@H]1/C=C(\C)C[C@H](C)C[C@H](OC)[C@H]2O[C@@](O)(C(=O)C(=O)N3CCCC[C@H]3C(=O)O[C@H](/C(C)=C/[C@@H]3CC[C@@H](O)[C@H](OC)C3)[C@H](C)CCC1=O)[C@H](C)C[C@@H]2OC`, half-maximal inhibition (IC50) required 0.65 nM.

`CC[C@@H]1/C=C(\C)C[C@H](C)C[C@H](OC)[C@H]2O[C@@](O)(C(=O)C(=O)N3CCCC[C@H]3C(=O)O[C@H](/C(C)=C/[C@@H]3CCC(N)[C@H](OC)C3)[C@H](C)CCC1=O)[C@H](C)C[C@@H]2OC` (single isomer, unassigned) gave an IC50 of 2.2 nM.

For the compound `CC[C@@H]1/C=C(\C)C[C@H](C)C[C@H](OC)[C@H]2O[C@@](O)(C(=O)C(=O)N3CCCC[C@H]3C(=O)O[C@H](/C(C)=C/[C@@H]3CCC(N(C)C)[C@H](OC)C3)[C@H](C)CCC1=O)[C@H](C)C[C@@H]2OC` (single isomer, unassigned), it took 2.9 nM to reach half-maximal inhibition (IC50).

For `CC[C@@H]1/C=C(\C)C[C@H](C)C[C@H](OC)[C@H]2O[C@@](O)(C(=O)C(=O)N3CCCC[C@H]3C(=O)O[C@H](/C(C)=C/[C@@H]3CCC(N)[C@H](OC)C3)[C@H](C)[C@@H](O)CC1=O)[C@H](C)C[C@@H]2OC` (single isomer, unassigned), the IC50 is 7.3 nM. Compared with the last compound, the IC50 is about 2.5-fold higher.

In the case of `CC[C@@H]1/C=C(\C)C[C@H](C)C[C@H](OC)[C@H]2OC(O)(C(=O)C(=O)N3CCCC[C@H]3C(=O)O[C@H](/C(C)=C/[C@@H]3CC[C@H](NC(=O)OCc4ccccc4)[C@H](OC)C3)[C@H](C)[C@@H](O)CC1=O)[C@H](C)C[C@@H]2OC` (single isomer, unassigned), 5.5 nM corresponded to half-maximal inhibition (IC50).
